TD50 and IC50 data for 5 compounds are collected here from US20080139536A1, “Benzodiazepines for Treating or Preventing Rsv Infection” (Novartis Pharmaceuticals Corporation, priority 2004, published 2008).

pIC50: −log10 of the molar value.

In one series the test system is Hep-2 cells. Description: Cell toxicity: crystal violet staining and microscopic examination of monolayers. Format: cell-based. Conditions: Hep-2 monolayers of the assay plates, crystal violet stain, indications of cell toxicity; compounds tested 50 μM-0.78 μM. As to the method:
(§1) All 96 wells of a microtitre plate were seeded at a density of 4×10^3 Hep-2 cells/well in 100 μl/well of Growth Medium (GM) consisting of Dulbecco's MEM (DMEM) with Glutamax-1, Sodium Pyruvate, 1000 mg/l glucose and pyridoxine (Invitrogen, catalogue number 21885-025) and supplemented with 10% FBS. (See Plate 1).
(§2) Six compounds were tested on each assay plate as illustrated below. (See Plate 3). Compounds were tested in duplicate wells across a 7-point dilution series (from 50 μM-0.78 μM): in the presence of virus.
The wells were emptied, washed in tap water and the monolayers stained with 50 μl/well of 2% crystal violet in 20% methanol/water for at least 1 hour. The wells were then washed and air-dried and the monolayers examined under the microscope for indications of cell toxicity.

The subject of a further series is RSV (RSS strain). In words: RSV ELISA antigen reduction assay in Hep-2 cells. Type of series: cell-based, Respiratory Syncytial Virus. Conditions: RSV-infected Hep-2 cells, 3 day assay, ELISA OD 490 nm, 7-point dilution 50 μM-0.78 μM. As to the method:
This was quantified by optical density (OD) measurement.
This assay was set up using all 96 wells of flat-bottomed 96-well plates. The outer wells were not subjected to any greater amount of evaporation than the inner wells during the 3 day assay period. (i.e. No “edge effect” seen).
Plates were set up one day before addition of virus and compounds. The assay then ran for 3 days with ELISA development taking place on the 4th day.
as §1
A frozen vial of RSV (RSS strain provided by Virogen Ltd) stock solution was removed from the −80 freezer or liquid nitrogen store and diluted to a known Multiplicity of Infection (m.o.i) in Growth Medium.
The m.o.i. was calculated by prior titration of the virus stock (by the ELISA assay method) as the virus input required to achieve a window of at least 0.8 OD units between infected and uninfected control wells.
50 μl of diluted virus was added to infected, “virus+”, wells by multichannel pipette; 50 μl of Growth Medium was added to uninfected, cell control wells (CC) by multichannel pipette. (See Plate 2)
Plates were incubated at 37° C. for 1 hr to allow virus adsorption.
Compounds were made up at 4× strength in GM containing 2% DMSO (a final DMSO concentration in the assay of 0.5%).
as §2
Virus infected, untreated wells served as the virus control (VC); Uninfected, untreated wells serve as the cell control (CC). The difference in absorbance between CC and VC wells constitutes the assay window.
200 μl of GM containing 2% DMSO was added to all wells except the ‘50 μM’ or first column, to which 392 μl of GM was added. 8 μl of each test compound was cherry-picked from a thawed Arrow screening plate and transferred to the appropriate well in the ‘50 μM’ column. Since the compound stock was at 10 mM in 100% DMSO, this will maintain the DMSO level at 2% at the top compound concentration.
Using a multichannel pipette, 200 μl was transferred from the 50 μM column to the 25 μM column, then to the 12.5 μM column and so on across the dilution plate creating a serial doubling dilution. Compounds were mixed upon transfer and tips changed between transfers, ensuring also that no compound was transferred to the last column of compound-free wells (0 μM).
The dilution plate was turned lengthways and 50 μl of compound easily transferred by multichannel pipette from the dilution plate to the assay plate, column by column. There was therefore an excess of 100 μl remaining in the dilution plate.
Plates were incubated at 37° C., 5% CO2 for 3 days.
Media was tapped out from wells directly into Virkon (1% solution in water) and plates were washed by immersing in a plastic box containing PBS. 50 μl/well of 75%/25% vol/vol acetone/methanol fixative was added by multichannel pipette and left for 3 mins.
Some 200 μl of blocking solution (2% Marvel in PBS containing 0.05% Tween) was added per well by multichannel pipette. Plates were incubated at 37° C. in a shaking incubator for 60 mins.
RSV mouse monoclonal antibody NCL-RSV3 (Novocastra) was diluted 1/400 in PBS/2% Marvel/0.05% Tween and 50 μl was added per well. Plates were incubated at 37° C. in a shaking incubator for 90 mins.
DAKo rabbit anti-mouse HRP conjugate (DAKO catalogue number P0260) was diluted 1/1000 in PBS/2% Marvel/0.05% Tween and 50 μl was added per well. Plates were incubated at 37° C. in a shaking incubator for 60 mins.
Substrate (SigmaFast OPD) was prepared in advance by dissolving 1 urea tablet in 20 mL water. […]

[1] abbreviates: human respiratory syncytial virus, 72 h.

Take `N#Cc1ccc(C(=O)N[C@H]2N=C(c3ccccc3)c3ccccc3NC2=O)c(N2CCCC2)c1` [Example 14, (S)-4-Cyano-N-(2-oxo-5-phenyl-2,3-dihydro-1H-benzo[e][1,4]diazepin-3-yl)-2-pyrrolidin-1-yl-benzamide]: the TD50 entry in the series on Hep-2 cells is given as “Tr50”. Further, in the series with RSV (RSS strain) (setting [1]), the pIC50 was over 5.30.
With `N#Cc1ccc(C(=O)N[C@H]2N=C(c3ccccc3)c3ccccc3NC2=O)c(N2CCCCC2)c1` [Example 15, (S)-4-Cyano-N-(2-oxo-5-phenyl-2,3-dihydro-1H-benzo[e][1,4]diazepin-3-yl)-piperidine-1-yl-benzamide], the TD50 result in the series on Hep-2 cells is given as “Tr25”. Moreover, the pIC50 in the series with RSV (RSS strain) was under 5.00.
With `O=C(N[C@H]1N=C(c2ccccc2)c2ccccc2NC1=O)c1cccnc1N1CCOCC1` [Example 21, (S)-2-Morpholin-4-yl-N-(2-oxo-5-phenyl-2,3-dihydro-1H-benzo[e][1,4]diazepin-3-yl)-nicotinamide], the TD50 entry with Hep-2 cells is recorded as “Tr25”. For the same compound, the pIC50 in the series with RSV (RSS strain) (setting [1]) was 5.00 to 5.30.
For the compound `O=C(N[C@H]1N=C(c2ccccc2)c2ccccc2NC1=O)c1ccc(F)cc1[N+]1([O-])CCS(=O)(=O)CC1` [Example 5], the TD50 result in the series on Hep-2 cells is given as “Tr25”. In the series on RSV (RSS strain), this compound had a pIC50 of over 5.30.
For the compound `O=C(N[C@H]1N=C(c2ccccc2)c2ccccc2NC1=O)c1cc(F)ccc1N1CCS(=O)(=O)CC1` [Example 7, (S)-2-(1,1-Dioxo-1λ6-thiomorpholin-4-yl)-5-fluoro-N-(2-oxo-5-phenyl-2,3-dihydro-1H-benzo[e][1,4]diazepin-3-yl)-benzamide], in the series on Hep-2 cells, the TD50 result is “Tr50”. Besides, the pIC50 with RSV (RSS strain) (setting [1]) was over 5.30.

The pIC50 is the negative decadic logarithm of the IC50, by convention in mol/L.
